The text below walks through data of patent publication US12247015B2, “3-amino-4H-benzo[e][1,2,4]thiadiazine 1,1-dioxide derivatives as inhibitors of MRGX2” (Solent Therapeutics, LLC, priority 2019, dated 2025).

The target of assay [1] is hMRGX2 (CHO-K1 cells overexpressing MRGX2) (Homo sapiens (Human), UniProt Q96LB1). Briefly: In vitro inhibition (EC50) of intracellular calcium flux, FLIPR Tetra, substance P stimulation. The class given is cell-based. As to conditions: stimulated with MRGX2 ligand substance P, FLIPR Calcium 5, read-out: hMRGX2 Cellular Potency (pEC50) (converted). In a few lines:
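CHO-K1 cells overexpressing human MRGX2, loaded with Calcium 5 dye for 30 min at 37 °C, then given compound (11-point, top 10 μM).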
(Calcium assays in cells follow changes in intracellular calcium, usually with a dye or a luminescent sensor.)

A further assay has as its target human MRGX2 receptor (Homo sapiens (Human), UniProt Q96LB1). The assay is described as follows: In vitro radioligand binding assay (Kd). As to conditions: membrane from SF9 cells overexpressing human MRGX2; 3H-labeled ligand; pH 7.4, room temperature, 60 minutes. Here is the method:
In vitro Radioligand Binding Assay (Kd)
Equilibrium dissociation constants, Kd, for many of the compounds described in the Examples section (“test compounds”) are determined in the presence cellular membrane prepared from SF9 cell lines overexpressing the human MRGX2 receptor. The assay is carried out in a 96-well plate (Greiner V-Bottom #651201). […] The assay mixtures, which comprise MRGX2 receptor, radiolabeled ligand and test compound, are incubated at room temperature (˜22° C.) for 60 minutes to reach equilibrium. After incubation, the assay mixtures are collected on a filter mat (Filtermat A, Perkin Elmer) using a cell harvester (Harvester 96, TOMTEC). The filter mat is completely dried. A solid scintillant (Meltilex, Perkin Elmer) is added to each filter membrane and the level of radioactivity (“Signal”) from each well (assay mixture) is recorded using a scintillation counter (Trilux Microbeta, PerkinElmer). Kd is determined by curve-fitting the dose response data ([I], Signal) for each set of samples to the equation,
[formula] where [I] is the concentration of the test compound. The data are reported as pKd

Each structure is given as a SMILES string.

Sequence of hMRGX2 (CHO-K1 cells overexpressing MRGX2) (Q96LB1 whole entry): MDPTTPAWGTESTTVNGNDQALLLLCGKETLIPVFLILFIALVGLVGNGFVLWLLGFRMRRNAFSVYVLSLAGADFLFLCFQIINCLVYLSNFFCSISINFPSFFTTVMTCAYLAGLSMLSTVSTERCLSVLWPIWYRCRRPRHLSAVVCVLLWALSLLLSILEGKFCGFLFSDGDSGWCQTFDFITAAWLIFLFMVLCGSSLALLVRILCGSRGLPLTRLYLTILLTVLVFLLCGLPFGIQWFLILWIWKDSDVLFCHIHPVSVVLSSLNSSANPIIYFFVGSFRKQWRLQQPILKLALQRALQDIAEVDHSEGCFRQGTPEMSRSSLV
Sequence of human MRGX2 receptor (Q96LB1 whole entry): as above

As to `CNC1=NS(=O)(=O)c2cccc(-c3cccc(F)c3Cl)c2N1` [Example 1, 5-(2-chloro-3-fluorophenyl)-3-(methylamino)-4H-benzo[e][1,2,4]thiadiazine 1,1-dioxide], the EC50 in assay [1] is 69.3 nM. For the same compound, the “hMRGX2 Binding Affinity (pKd)” value at human MRGX2 receptor is recorded as 6.724.
As for `COCCNC1=NS(=O)(=O)c2cccc(-c3cccc(F)c3Cl)c2N1` [Example 2, 5-(2-chloro-3-fluorophenyl)-3-((2-methoxyethyl)amino)-4H-benzo[e][1,2,4]thiadiazine 1,1-dioxide], in assay [1], the EC50 is 51.9 nM. In addition, the “hMRGX2 Binding Affinity (pKd)” value on human MRGX2 receptor is listed as 6.984.
`COCCNC1=NS(=O)(=O)c2cc(F)cc(-c3cccc(F)c3Cl)c2N1` [Example 4, 5-(2-chloro-3-fluorophenyl)-7-fluoro-3-((2-methoxyethyl)amino)-4H-benzo[e][1,2,4]thiadiazine 1,1-dioxide]: in assay [1], the EC50 was 15.4 nM. Further, on human MRGX2 receptor, the “hMRGX2 Binding Affinity (pKd)” value is on record as 6.975.
As for `CCNC1=NS(=O)(=O)c2cc(F)cc(-c3cccc(F)c3Cl)c2N1` [Example 6, 5-(2-chloro-3-fluorophenyl)-3-(ethylamino)-7-fluoro-4H-benzo[e][1,2,4]thiadiazine 1,1-dioxide], the EC50 in assay [1] is 21.6 nM. For the same compound, at human MRGX2 receptor, the “hMRGX2 Binding Affinity (pKd)” value turned out to be 6.78.
As for `O=S1(=O)N=C(NCC2CC2)Nc2c(-c3cccc(F)c3Cl)cc(F)cc21` [Example 7, 5-(2-chloro-3-fluorophenyl)-3-((cyclopropylmethyl)amino)-7-fluoro-4H-benzo[e][1,2,4]thiadiazine 1,1-dioxide], the EC50 in assay [1] was 23.3 nM. For the same compound, the “hMRGX2 Binding Affinity (pKd)” value at human MRGX2 receptor was 7.27.
With `O=S1(=O)N=C(NCc2ncccc2F)Nc2c(-c3cccc(F)c3Cl)cccc21` [Example 12, 5-(2-chloro-3-fluorophenyl)-3-(((3-fluoropyridin-2-yl)methyl)amino)-4H-benzo[e][1,2,4]thiadiazine 1,1-dioxide], in assay [1], the EC50 was 13.6 nM. Also, the “hMRGX2 Binding Affinity (pKd)” value on human MRGX2 receptor is reported as 7.45.
With `O=S1(=O)N=C(NCc2ncccc2F)Nc2c(-c3ccccc3Cl)cc(F)cc21` [Example 16, 5-(2-chlorophenyl)-7-fluoro-3-(((3-fluoropyridin-2-yl)methyl)amino)-4H-benzo[e][1,2,4]thiadiazine 1,1-dioxide], the EC50 in assay [1] was 10.3 nM. For the same compound, the “hMRGX2 Binding Affinity (pKd)” value on human MRGX2 receptor amounted to 7.5.
The like results for `O=S1(=O)N=C(NCc2ncco2)Nc2c(-c3cccc(F)c3Cl)cccc21` [Example 28, 5-(2-chloro-3-fluorophenyl)-3-((oxazol-2-ylmethyl)amino)-4H-benzo[e][1,2,4]thiadiazine 1,1-dioxide] were, in that order, 24.1 nM and 7.03.
The like results for `O=S1(=O)N=C(NCC(F)F)Nc2c(-c3cccc(F)c3Cl)cccc21` [Example 34, 5-(2-chloro-3-fluorophenyl)-3-((2,2-difluoroethyl)amino)-4H-benzo[e][1,2,4]thiadiazine 1,1-dioxide] were, in that order, 38.5 nM and 7.025.
In the case of `COCCNC1=NS(=O)(=O)c2cccc(-c3ccccc3Cl)c2N1` [Example 35, 5-(2-chlorophenyl)-3-((2-methoxyethyl)amino)-4H-benzo[e][1,2,4]thiadiazine 1,1-dioxide], the EC50 in assay [1] was 92 nM. For the same compound, the “hMRGX2 Binding Affinity (pKd)” value at human MRGX2 receptor was 4.7.
With `CCNC1=NS(=O)(=O)c2cccc(-c3cccc(F)c3Cl)c2N1` [Example 39, 5-(2-chloro-3-fluorophenyl)-3-(ethylamino)-4H-benzo[e][1,2,4]thiadiazine 1,1-dioxide], in assay [1], the EC50 is 52 nM. Besides, on human MRGX2 receptor, the “hMRGX2 Binding Affinity (pKd)” value is listed as 7.055.
The like results for `CNC1=NS(=O)(=O)c2cccc(-c3ccccc3Cl)c2N1` [Example 43, 5-(2-chlorophenyl)-3-(methylamino)-4H-benzo[e][1,2,4]thiadiazine 1,1-dioxide] were, in that order, 102 nM and 6.47.
The like results for `O=S1(=O)N=C(NCc2nccs2)Nc2c(-c3cccc(F)c3Cl)cccc21` [Example 65, 5-(2-chloro-3-fluorophenyl)-3-((thiazol-2-ylmethyl)amino)-4H-benzo[e][1,2,4]thiadiazine 1,1-dioxide] were, in that order, 10.7 nM and 7.055.
Taken in the same sequence, the figures for `O=S1(=O)N=C(NCc2ncccn2)Nc2c(-c3cccc(F)c3Cl)cccc21` [Example 66, 5-(2-chloro-3-fluorophenyl)-3-((pyrimidin-2-ylmethyl)amino)-4H-benzo[e][1,2,4]thiadiazine 1,1-dioxide] were 29.4 nM and 7.22.
For `CNC1=NS(=O)(=O)c2cccc(-c3cccc(F)c3C#N)c2N1` [Example 89, 2-fluoro-6-(3-(methylamino)-1,1-dioxido-4H-benzo[e][1,2,4]thiadiazin-5-yl)benzonitrile], in assay [1], the EC50 was 69.2 nM. In addition, on human MRGX2 receptor, the “hMRGX2 Binding Affinity (pKd)” value is 6.35.
Turning to `Cc1nn(C)cc1-c1cccc2c1NC(Nc1ccc(C(C)C)cc1)=NS2(=O)=O` [Example 103, 5-(1,3-dimethyl-1H-pyrazol-4-yl)-3-((4-isopropylphenyl)amino)-4H-benzo[e][1,2,4]thiadiaazne 1,1-dioxide], the EC50 in assay [1] was 51.2 nM. Besides, the “hMRGX2 Binding Affinity (pKd)” value on human MRGX2 receptor amounted to 6.755.
The like results for `CC(C)c1ccc(NC2=NS(=O)(=O)c3cccc(-c4cnn(C5CCC5)c4)c3N2)cc1` [Example 105, 5-(1-cyclobutyl-1H-pyrazol-4-yl)-3-((4-isopropylphenyl)amino)-4H-benzo[e][1,2,4]thiadiazine 1,1-dioxide] were, in that order, 119 nM and 6.06.
Taken in the same sequence, the figures for `CC(C)c1ccc(NC2=NS(=O)(=O)c3cccc(-c4cnn(C)c4)c3N2)cc1` [Example 107, 3-((4-isopropylphenyl)amino)-5-(1-methyl-1H-pyrazol-4-yl)-4H-benzo[e][1,2,4]thiadiazine 1,1-dioxide] were 132 nM and 6.52.
The like results for `CC(C)c1ccc(NC2=NS(=O)(=O)c3cccc(C4CC4)c3N2)cc1` [Example 109, 5-cyclopropyl-3-((4-isopropylphenyl)amino)-4H-benzo[e][1,2,4]thiadiazine 1,1-dioxide] were, in that order, 106 nM and 6.575.
As to `Cc1c(-c2cccc3c2NC(Nc2ccc(C(C)C)cc2)=NS3(=O)=O)cnn1C` [Example 114, 5-(1,5-dimethyl-1H-pyrazol-4-yl)-3-((4-isopropylphenyl)amino)-4H-benzo[e][1,2,4]thiadiazine 1,1-dioxide], the EC50 in assay [1] was 262 nM. The “hMRGX2 Binding Affinity (pKd)” value on human MRGX2 receptor was 6.095.
Take `COCCNC1=NS(=O)(=O)c2cccc(-c3cccc(F)c3C#N)c2N1` [Example 125, 2-fluoro-6-(3-((2-methoxyethyl)amino)-1,1-dioxido-4H-benzo[e][1,2,4]thiadiazin-5-yl)benzonitrile]: the EC50 in assay [1] is 78.2 nM. For the same compound, at human MRGX2 receptor, the “hMRGX2 Binding Affinity (pKd)” value is reported as 6.545.
Taken in the same sequence, the figures for `CCc1ccc(NC2=NS(=O)(=O)c3cccc(-c4cnn(C)c4)c3N2)cc1` [Example 136, 3-((4-ethylphenyl)amino)-5-(1-methyl-1H-pyrazol-4-yl)-4H-benzo[e][1,2,4]thiadiazine 1,1-dioxide] were 119 nM and 6.535.
The like results for `Cc1ccccc1-c1cccc2c1NC(NCc1ccco1)=NS2(=O)=O` [Example 137, 3-((furan-2-ylmethyl)amino)-5-(o-tolyl)-4H-benzo[e][1,2,4]thiadiazine 1,1-dioxide] were, in that order, 79.1 nM and 6.54.
With `O=S1(=O)N=C(NCCF)Nc2c(-c3cccc(F)c3Cl)cccc21` [Example 147, 5-(2-chloro-3-fluorophenyl)-3-((2-fluoroethyl)amino)-4H-benzo[e][1,2,4]thiadiazine 1,1-dioxide], the EC50 in assay [1] was 51.1 nM. The “hMRGX2 Binding Affinity (pKd)” value on human MRGX2 receptor was determined as 6.67.
Taken in the same sequence, the figures for `Cc1ccccc1-c1cccc2c1NC(NCc1ccccn1)=NS2(=O)=O` [Example 162, 3-((pyridin-2-ylmethyl)amino)-5-(o-tolyl)-4H-benzo[e][1,2,4]thiadiazine 1,1-dioxide] were 100 nM and 6.51.
With `COCCNC1=NS(=O)(=O)c2cccc(-c3cc(F)cc(F)c3F)c2N1` [Example 168, 3-((2-methoxyethyl)amino)-5-(2,3,5-trifluorophenyl)-4H-benzo[e][1,2,4]thiadiazine 1,1-dioxide], the EC50 in assay [1] is 470 nM.
Take `COCc1cccc2c1NC(Nc1ccc(C(C)C)cc1)=NS2(=O)=O` [Example 169, 3-((4-isopropylphenyl)amino)-5-(methoxymethyl)-4H-benzo[e][1,2,4]thiadiazine 1,1-dioxide]: the EC50 in assay [1] is 474 nM. Besides, the “hMRGX2 Binding Affinity (pKd)” value at human MRGX2 receptor was determined as 5.95.
`COCCNC1=NS(=O)(=O)c2cccc(-c3ccc(F)c(F)c3C)c2N1` [Example 170, 5-(3,4-difluoro-2-methylphenyl)-3-((2-methoxyethyl)amino)-4H-benzo[e][1,2,4]thiadiazine, 1,1-dioxide]: the EC50 in assay [1] is 638 nM.
